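Five compound concentrations were applied to cells in 96-well plates for 48 hours; endpoints were derived by simple linear interpolation of the resulting dose-response curve. GI50: concentration for 50% inhibition of growth.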 Calls of active or inactive are those of the source. No stated cut-off is given here; in the data, active = GI50 up to about 1.1 µM and inactive = higher.
How the values were obtained:
Assay in all cases: NCI-60 cell line screen, 48 h
[1] = system: LXFL 529
[2] = system: OVCAR-3
[3] = system: UACC-62
[4] = system: DLD-1
[5] = system: COLO 205
[6] = system: SNB-75
[7] = system: Malme-3M
[8] = system: NCI-H23
[9] = system: SK-MEL-5
[10] = system: TK-10
[11] = system: UO-31
[12] = system: HL-60
[13] = system: K562
[14] = system: CAKI-1
[15] = system: 786-0
[16] = system: ACHN
[17] = system: NCI-H522
[18] = system: KM-20L2
[19] = system: NCI-H226
[20] = system: EKVX

Measured: GI50

Fc1ccc(F)c(C2SCc3nc4ccccc4n32)c1 (stereo not given)
inactive: [1] 53.3 µM | [2] 54.6 µM | [3] 91.6 µM | [4] > 100 µM | [5] > 100 µM | [6] > 100 µM | [7] 57.1 µM | [8] 46.2 µM | [9] 20.3 µM | [10] 34.3 µM | [11] 41.3 µM | [12] 20.1 µM | [13] 37.1 µM | [14] 95.5 µM | [15] > 100 µM | [16] 98.4 µM | [17] 36.1 µM | [18] > 100 µM | [19] > 100 µM | [20] 57.9 µM

O=C(Nc1ccc(Cl)cc1Cl)C1C(=O)N(c2ccc(Cl)cc2Cl)C(=O)/C1=N\Nc1ccc([N+](=O)[O-])cc1[N+](=O)[O-] (stereo not given)
inactive: [1] 13.9 µM | [2] 47.2 µM | [3] 15.8 µM | [4] 46.8 µM | [5] 52.5 µM | [6] 27.3 µM | [7] 64 µM | [8] 23.9 µM | [9] 79.8 µM | [10] > 100 µM | [11] 15.8 µM | [12] 35.2 µM | [13] 14.7 µM | [14] 54.5 µM | [15] 67.8 µM | [16] 74.5 µM | [17] 21.5 µM | [18] 26.4 µM | [19] 39.6 µM | [20] > 100 µM

N#C/C(=C1\SC(/N=N/c2ccccc2)C(=O)N1c1ccccc1)c1nc2ccccc2[nH]1 (stereo not given)
inactive: [1] > 100 µM | [2] 68.1 µM | [3] > 100 µM | [4] > 100 µM | [5] > 100 µM | [6] 36.7 µM | [7] > 100 µM | [8] > 100 µM | [9] 57 µM | [10] 48.9 µM | [11] 24.2 µM | [12] 48.8 µM | [13] 36.3 µM | [14] > 100 µM | [15] 7.35 µM | [16] > 100 µM | [17] > 100 µM | [18] > 100 µM | [19] 71.1 µM | [20] > 100 µM

Reference: ChEMBL document CHEMBL1201862, “PubChem BioAssay data set” (2004)
